Seven molecules from paper PMC8242095, “Crystal structure of an archaeal CorB magnesium transporter” (Nature Communications, 2021) can be followed below.

One data set addresses T1, MtCorBΔC (Methanoculleus thermophilus, UniProt A0A1G8XA46).
T1 construct: gene corB; residues 1-322 (TMD, AHB, CBS-pair; CorC domain deleted), C-terminal His6-tag, E. coli C41(DE3), detergent-solubilized
The data set is described as follows: isothermal titration calorimetry. It is filed as binding. The text has this:
isothermal titration calorimetry on MtCorBΔC | MtCorBΔC has the highest affinity for ATP, followed by ADP and AMP
In general terms: Isothermal titration calorimetry measures the heat released or taken up as one component is titrated into another.

A further data set has as its target T2, MtCorBCBS (Methanoculleus thermophilus, UniProt A0A1G8XA46).
T2 construct: gene corB; CBS-pair domain, residues 199-322, GST-tag cut leaving N-terminal GPLGS, E. coli BL21(DE3); crystal 7MSU came from in situ cleavage of MtCorBΔC
As to the kind of experiment: isothermal titration calorimetry; also crystal structure […] Å. It is filed as binding.

Data set [1] concerns the molecule itself. The data set is described as follows: crystal structure; MtCorBΔC R235L in 0.05% UDM, no ATP; hanging drop, 0.1 M sodium citrate pH 5.5, 50 mM Li2SO4, 11% PEG4000, 10 mM MgSO4, 22 °C; 3.8 Å.
Data set [2] deals with the molecule itself. The data set is described as follows: HDX-MS; MtCorB or MtCorBΔC in MSP1D1 nanodiscs, with and without Mg2+-ATP; exchange for 3, 30, 300 or 3000 s at 20 °C, 100 mM NaCl, 20 mM HEPES pH 7.5.
Data set [3] concerns the molecule itself. The data set is described as follows: crystal structure; MtCorBΔC_(Δloop) in 0.05% UDM with 5 mM ATP and 20 mM MgCl2; hanging drop, 0.1 M sodium citrate pH 5.5, 0.1 M Li2SO4, 0.1 M NaCl, 34% PEG400, 22 °C; 3.25 Å.

Turning to `Nc1ncnc2c1ncn2[C@@H]1O[C@H](COP(=O)(O)OP(=O)(O)O)[C@@H](O)[C@H]1O` [ADP], on MtCorBΔC, the Kd (usually the equilibrium constant for the complex coming apart) turned out to be 10.3 ± 1 µM. On the same count and under the same terms, as for `Nc1ncnc2c1ncn2[C@@H]1O[C@H](COP(=O)(O)O)[C@@H](O)[C@H]1O` [AMP], the figure is 83 ± 17 µM.

Regarding `Nc1ncnc2c1ncn2[C@@H]1O[C@H](COP(=O)(O)OP(=O)(O)OP(=O)(O)O)[C@@H](O)[C@H]1O` [ATP], the Kd at MtCorBΔC is 0.59 ± 0.06 µM; on MtCorBCBS, 0.53 ± 0.05 µM.

B1: MtCorBΔC R235L (domain or fragment, Methanoculleus thermophilus, UniProt A0A1G8XA46 1-322, looked up)
chain: MVVIDLLIVEVVLFIAALLFSGFFSSSEVALISITRAKVHALQSQGRKGAKALDTLKRSTDAIQITTLIGSTIANVAVASLATAIGITLYGNLGIAVGLVVAAVLVLVFGEIGPKMYASRYTEELALRVSRPILFFSKLLYPVLWVTDRIEQQFAFRPGVTEPVVTEEEIKEWIDVGEEEGTIEEEERDMLYSVLRFGDTTAREVMTPRVDVVMIEDTATLESALAIFNETGFSLIPVYHERIDNIVGLLNVKDVFSAVFRQQTSATIRDLMYEPYFIPESKKIDELLKELQVKKQHMAVVLDEYGSFAGIVTVEDMLEELV
notes: CorB, Methanoculleus thermophilus, UniProt A0A1G8XA46, residues 1-322 (MtCorBΔC) with R235L; also called MtCorBΔC R235L mutant; apo conformation of MtCorBΔC; source: E. coli C41 (DE3), purified (Ni-NTA, SEC) in UDM
As for B1, the binding result in data set [1] is given as “binds”.

B2: MtCorBΔC (residues 1–322) (domain or fragment, Methanoculleus thermophilus, UniProt A0A1G8XA46 1-322, looked up)
chain: MVVIDLLIVEVVLFIAALLFSGFFSSSEVALISITRAKVHALQSQGRKGAKALDTLKRSTDAIQITTLIGSTIANVAVASLATAIGITLYGNLGIAVGLVVAAVLVLVFGEIGPKMYASRYTEELALRVSRPILFFSKLLYPVLWVTDRIEQQFAFRPGVTEPVVTEEEIKEWIDVGEEEGTIEEEERDMLYSVLRFGDTTAREVMTPRVDVVMIEDTATLESALAIFNETGFSRIPVYHERIDNIVGLLNVKDVFSAVFRQQTSATIRDLMYEPYFIPESKKIDELLKELQVKKQHMAVVLDEYGSFAGIVTVEDMLEELV
notes: CorB, Methanoculleus thermophilus, UniProt A0A1G8XA46, residues 1-322 (CorC domain deleted); In nanodiscs of soybean polar extract and MSP1D1 (MtCorB:MSP1D1:lipid 2:10:550); filled nanodiscs were recovered on Ni-NTA; also called truncated MtCorB; MtCorB with a C-terminal CorC domain deletion; source: E. coli C41 (DE3), purified (Ni-NTA, SEC), reconstituted into MSP1D1 nanodiscs; not shown: His6, …
In the case of B2, in data set [2], the binding result was “binds”.

B3: MtCorBΔC_(Δloop) (Methanoculleus thermophilus CorB residues 1–322 Δ259–262) (domain or fragment, UniProt A0A1G8XA46 1-322, looked up)
chain: MVVIDLLIVEVVLFIAALLFSGFFSSSEVALISITRAKVHALQSQGRKGAKALDTLKRSTDAIQITTLIGSTIANVAVASLATAIGITLYGNLGIAVGLVVAAVLVLVFGEIGPKMYASRYTEELALRVSRPILFFSKLLYPVLWVTDRIEQQFAFRPGVTEPVVTEEEIKEWIDVGEEEGTIEEEERDMLYSVLRFGDTTAREVMTPRVDVVMIEDTATLESALAIFNETGFSRIPVYHERIDNIVGLLNVKDVFSAQTSATIRDLMYEPYFIPESKKIDELLKELQVKKQHMAVVLDEYGSFAGIVTVEDMLEELV
notes: CorB, Methanoculleus thermophilus, UniProt A0A1G8XA46, residues 1-322 (TMD, AHB and CBS-pair domain; CorC domain deleted) with the internal loop 259-262 deleted; Modelled: chain A residues 5-322, chain B residues 4-154 and 160-322; also called MtCorBΔC with an internal loop deletion; source: E. coli C41 (DE3), purified (Ni-NTA, SEC) in UDM
For the molecule B3, the binding result in data set [3] is reported as “binds”.

B4: MtCorB (residues 1–426), Methanoculleus thermophilus CorB (natural protein, UniProt A0A1G8XA46 1-426, looked up)
chain: MVVIDLLIVEVVLFIAALLFSGFFSSSEVALISITRAKVHALQSQGRKGAKALDTLKRSTDAIQITTLIGSTIANVAVASLATAIGITLYGNLGIAVGLVVAAVLVLVFGEIGPKMYASRYTEELALRVSRPILFFSKLLYPVLWVTDRIEQQFAFRPGVTEPVVTEEEIKEWIDVGEEEGTIEEEERDMLYSVLRFGDTTAREVMTPRVDVVMIEDTATLESALAIFNETGFSRIPVYHERIDNIVGLLNVKDVFSAVFRQQTSATIRDLMYEPYFIPESKKIDELLKELQVKKQHMAVVLDEYGSFAGIVTVEDMLEELVGEILDEFDEEEPEVQQLEEGIYLVDARTWVEHLNEDLDLNLPLMDTYESIGGLVIERLGHIPRRGEVVKIEESNVTLVVMQMRGRRIVKVKLIIGPPVPPTESR
notes: CorB, Methanoculleus thermophilus, UniProt A0A1G8XA46, residues 1-426; In nanodiscs of soybean polar extract and MSP1D1; filled nanodiscs were recovered on Ni-NTA; also called full-length MtCorB; source: E. coli C41 (DE3), purified (Ni-NTA, SEC), reconstituted into MSP1D1 nanodiscs; not shown: His6, C-terminal, kept
In the case of B4, the binding result in data set [2] is “binds”.
